Laboratory results as given in PubChem BioAssay (NCI).
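In this assay, cells in 96-well plates receive the compound at five concentrations for 48 hours. Endpoints are linearly interpolated between the surrounding concentrations. The concentration for 50% growth inhibition is given as GI50. TGI denotes the concentration required for complete inhibition of growth.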

Key:
Experiment in all cases: NCI anticancer screen, dose series, 48 h
SK-MEL-5 melanoma = test system: SK-MEL-5 melanoma
OVCAR-3 ovarian = test system: OVCAR-3 ovarian
KM12 colon = test system: KM12 colon
786-0 renal = test system: 786-0 renal
UO-31 renal = test system: UO-31 renal
SK-MEL-28 melanoma = test system: SK-MEL-28 melanoma
CCRF-CEM leukemia = test system: CCRF-CEM leukemia
HL-60(TB) leukemia = test system: HL-60(TB) leukemia
MDA-MB-231 breast = test system: MDA-MB-231 breast
DU-145 prostate = test system: DU-145 prostate

Structure (SMILES)	TGI (SK-MEL-5 melanoma) [µM]	TGI (OVCAR-3 ovarian) [µM]	TGI (KM12 colon) [µM]	TGI (786-0 renal) [µM]	TGI (UO-31 renal) [µM]	TGI (SK-MEL-28 melanoma) [µM]	TGI (CCRF-CEM leukemia) [µM]	TGI (HL-60(TB) leukemia) [µM]	GI50 (SK-MEL-5 melanoma) [µM]	GI50 (OVCAR-3 ovarian) [µM]	GI50 (MDA-MB-231 breast) [µM]	TGI (MDA-MB-231 breast) [µM]	GI50 (KM12 colon) [µM]	GI50 (786-0 renal) [µM]	GI50 (DU-145 prostate) [µM]	TGI (DU-145 prostate) [µM]	GI50 (UO-31 renal) [µM]	GI50 (SK-MEL-28 melanoma) [µM]	GI50 (HL-60(TB) leukemia) [µM]
CC(C)(O)[C@@H]1CC[C@@]2(C)CCCC(O)C2(O)C1 (stereo partly specified)	> 100	> 100	> 100	> 100	> 100	> 100	> 100	> 100											
C[C@@H](NC1CCCC[C@H]1O)c1ccccc1 (stereo partly specified)	> 100	> 100	> 100	> 100	> 100	> 100	> 100	> 100											
N#CCCN(c1ccc(C=Nc2ccccc2)cc1)S(=O)(=O)c1ccccc1	> 100	> 100	> 100	> 100	> 100	> 100	> 100	> 100											
Nc1ncnc2c1ncn2[C@]1(CO)C=C(CO)C(O)C1O (stereo partly specified)	> 100		> 100	> 100		> 100		> 100											
CC(=O)OCC1OC(n2cc(F)c(=O)[nH]c2=O)C(NC(=O)N(CCCl)N=O)C(OC(C)=O)C1OC(C)=O (stereo unspecified)	> 100	> 100	> 100	> 100	> 100	> 100	> 100	> 100											
C/C(=C1/N=C(c2cc([N+](=O)[O-])ccc2Cl)N(c2cccc(C)c2)C1=O)c1cc2ccccc2oc1=O	53.8	> 100	> 100	> 100	> 100	> 100	> 100	> 100											
CCCCCN(CCCCC)C(=O)[C@@H](CCC(=O)O)NC(=O)c1cc2ccccc2[nH]1		> 100	> 100	> 100	79.9	57.5	61	41.2											
COC(=O)C(Cc1cc(OC)c(OC)c(OC)c1)C(=O)OC	> 320	> 320	> 320	> 320		> 320	> 320	> 320											
Cc1ccc(S(=O)(=O)OCCn2cnc3nc(NC(=O)c4ccccc4)[nH]c(=O)c32)cc1	> 100	> 100	> 100	> 100	> 100	> 100	> 100	> 100											
O=C(/C=C/c1cc(Cl)cc(Cl)c1O)c1cccc(O)c1	> 100	> 100	> 100	> 100	> 100	> 100	> 100	93.9											
O=S(=O)(NCCCNc1nccc(-c2c(-c3ccc(O)cc3)nc3sccn23)n1)c1ccc(F)cc1	2.67	12.1	5.46	> 100	7.3	6.23		5.61	1.21	2.66	1.82	> 100	2.02	3.22	2.52	9.56	2.33	0.0528	2.61
CN(C)C=Nc1ccn(CCO)c(=O)n1	> 100	> 100	> 100	> 100	> 100	> 100	> 100	> 100											
